Structures can show the parent of a compound that is named as a salt. Where two headings read alike, the source gives them in different places.
Key:
[1] = target: T1, CDK1/CycB (Homo sapiens, UniProt P06493); experiment: CDK1/CycB kinase assay; type: biochemical; conditions: Table I
T1 construct: GST; purchased ProQinase GmbH, Freiburg; host or cells: baculovirus-infected insect cells (Sf9)
Description: Recombinant CDK1- and CycB-GST fusion proteins, purified from baculovirus-infected insect cells (Sf9), were purchased from ProQinase GmbH, Freiburg. Histone IIIS, which was used as a kinase substrate, is commercially available from the Sigma Company.
CDK1/CycB (200 ng/measuring point) was incubated for 15 minutes at 22° C. in the presence of various concentrations of test substances (0 μm, as well as within the range of 0.01-100 μm) in assay buffer [50 mmol of tris/HCl, pH 8.0, 10 mmol of MgCl2, 0.1 mmol of Na ortho-vanadate, 1.0 mmol of dithiothreitol, 0.5 μm of adenosine triphosphate (ATP), 10 μg/measuring point of histone IIIS, 0.2 μCi/measuring point of 33P-gamma ATP, 0.05% NP40, 12.5% dimethyl sulfoxide]. The reaction was stopped by adding EDTA solution (250 mmol, pH 8.0, 14 μl/measuring point).
From each reaction batch, 10 μl was applied to P30 filter strips (Wallac Company), and non-incorporated 33P-ATP was removed by three washing cycles of the filter strips for 10 minutes each in 0.5% phosphoric acid. After the filter strips were dried for 1 hour at 70° C., the filter strips were covered with scintillator strips (MeltiLex™ A, Wallac Company) and baked for one hour at 90° C. The amount of incorporated 33P (substrate phosphorylation) was determined by scintillation measurement in a gamma-radiation measuring device (Wallac).

[2] = test system: MaTu-ADR; experiment: Proliferation assay MaTu-ADR; type: cell-based; conditions: Homo sapiens, 96 h, read-out: Proliferation IC50 MaTu-ADR
Text: (§1) Cultivated human tumor cells (MCF7, […] human breast cancer cells, relative to ATCC HTB22; NCI-H460, human non-small-cell lung cancer cells, ATCC HTB-177, HCT 116, human colon cancer cells, ATCC CCL-247; DU 145, hormone-independent human prostate cancer cells, ATCC HTB-81; MaTu-MDR, hormone-independent, multiple pharmaceutical agent-resistant human breast cancer cells, EPO-GmbH, Berlin) were flattened out at a density of about 5000 cells/measuring point, depending on growth rates of the respective cells in a 96-well multititer plate in 200 μl of the corresponding growth medium. After 24 hours, the cells of one plate (zero-point plate) were colored with crystal violet (see below), while the medium of the other plates was replaced by fresh culture medium (200 μl), to which the test substances were added at various concentrations (0 μmol, as well as in the range of 0.01-30 μmol; the final concentration of the solvent dimethyl sulfoxide was 0.5%). The cells were incubated for 4 days in the presence of test substances. The cell proliferation was determined by coloring the cells with crystal violet: the cells were fixed by adding 20 μl/measuring point of an 11% glutaric aldehyde solution for 15 minutes at room temperature. After three washing cycles of the fixed cells with water, the plates were dried at room temperature. The cells were colored by adding 100 μl/measuring point of a 0.1% crystal violet solution (pH was set at 3 by adding acetic acid). After three washing cycles of the colored cells with water, the plates were dried at room temperature. The dye was dissolved by adding 100 μl/measuring point of a 10% acetic acid solution. The extinction was determined by photometry at a wavelength of 595 nm. The change of cell growth, in percent, was calculated by standardization of the measured values to the extinction values of the zero-point plate (=0%) and the extinction of the untreated (0 μm) cells (=100%).

[3] = test system: DU145; experiment: Proliferation assay DU145; type: cell-based; conditions: Homo sapiens, DU-145, 96 h; Table II; 4 days incubation, crystal violet
Text: as §1

[4] = test system: HCT116; experiment: Proliferation assay HCT116; type: cell-based; conditions: Homo sapiens, HCT-116, 96 h; Table II; 4 days incubation, crystal violet
Text: as §1

[5] = test system: H460; experiment: Proliferation assay H460; type: cell-based; conditions: Homo sapiens, NCI-H460, 96 h; Table II; 4 days incubation, crystal violet
Text: as §1

[6] = test system: MCF7; experiment: Proliferation assay MCF7; type: cell-based; conditions: Homo sapiens, MCF7, 96 h, 4 days incubation, crystal violet
Text: as §1

[7] = target: T2, VEGF Receptor tyrosine kinase-2 (Homo sapiens, UniProt P35968); experiment: VEGF Rezeptor-2 kinase assay; type: biochemical; conditions: Table I; read-out: VEGF-R2 IC50
T2 construct: GST; made in house; host or cells: baculovirus-infected insect cells (Sf9)
T2 sequence (P35968 20-1356): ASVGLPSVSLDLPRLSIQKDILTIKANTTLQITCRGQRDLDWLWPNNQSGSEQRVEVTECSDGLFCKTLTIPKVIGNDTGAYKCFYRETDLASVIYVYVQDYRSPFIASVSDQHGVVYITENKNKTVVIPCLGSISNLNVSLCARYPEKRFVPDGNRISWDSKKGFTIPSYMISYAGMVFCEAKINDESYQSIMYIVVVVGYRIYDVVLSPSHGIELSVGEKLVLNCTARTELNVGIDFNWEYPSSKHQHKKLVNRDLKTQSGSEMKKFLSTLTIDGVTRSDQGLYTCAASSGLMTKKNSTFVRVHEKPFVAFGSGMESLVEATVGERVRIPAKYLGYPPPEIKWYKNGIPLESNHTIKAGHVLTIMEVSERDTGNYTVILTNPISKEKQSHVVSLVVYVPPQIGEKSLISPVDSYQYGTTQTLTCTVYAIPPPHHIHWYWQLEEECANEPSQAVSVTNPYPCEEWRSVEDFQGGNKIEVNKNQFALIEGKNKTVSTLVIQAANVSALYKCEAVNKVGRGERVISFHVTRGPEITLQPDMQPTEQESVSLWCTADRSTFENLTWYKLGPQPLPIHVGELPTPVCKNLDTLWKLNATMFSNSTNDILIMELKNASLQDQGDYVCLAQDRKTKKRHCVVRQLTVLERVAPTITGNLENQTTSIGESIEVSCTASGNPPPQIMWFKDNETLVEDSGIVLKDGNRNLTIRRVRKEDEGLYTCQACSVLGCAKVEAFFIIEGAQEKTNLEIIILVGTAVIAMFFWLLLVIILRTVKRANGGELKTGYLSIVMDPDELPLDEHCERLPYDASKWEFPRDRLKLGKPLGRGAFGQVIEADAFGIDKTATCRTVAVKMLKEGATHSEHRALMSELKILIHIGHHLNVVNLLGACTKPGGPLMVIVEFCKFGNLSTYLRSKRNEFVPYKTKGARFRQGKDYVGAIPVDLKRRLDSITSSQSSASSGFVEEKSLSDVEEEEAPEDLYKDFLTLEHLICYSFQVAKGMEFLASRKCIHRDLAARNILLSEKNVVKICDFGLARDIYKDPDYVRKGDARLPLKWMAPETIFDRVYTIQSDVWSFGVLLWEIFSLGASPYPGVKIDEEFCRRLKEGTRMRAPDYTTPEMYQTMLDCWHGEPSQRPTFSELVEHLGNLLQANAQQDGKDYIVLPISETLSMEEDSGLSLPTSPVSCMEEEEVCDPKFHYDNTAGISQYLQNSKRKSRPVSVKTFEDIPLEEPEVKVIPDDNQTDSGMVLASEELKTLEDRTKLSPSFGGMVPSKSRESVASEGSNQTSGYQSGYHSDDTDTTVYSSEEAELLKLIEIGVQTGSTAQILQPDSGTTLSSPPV
Description: VEGF Rezeptor-2 Kinase Assay
Recombinant VEGF Receptor tyrosine kinase-2 was purified as GST-fusion protein from baculovirus-infected insect cells (Sf9). Poly-(Glu4Tyr), which was used as a kinase substrate, was purchased from the Sigma Company.
VEGF Receptor tyrosine kinase (90 ng/measuring point) was incubated for 10 minutes at 22° C. in the presence of various concentrations of test substances (0 μmol, as well as within the range of 0.001-30 μM) in 30 μl of assay buffer [40 mmol of Tris/HCl […], 10 mmol of MgCl2, 1 mmol of MnCl2, 3 μmol of Na orthovanadate, 1.0 mmol of dithiothreitol, 8 μmol of adenosine trisphosphate (ATP), 27 μg/measuring point of poly-(Glu4Tyr), 0.2 μCi/measuring point of ^33P-gamma ATP, 1% dimethyl sulfoxide]. The reaction was stopped by adding EDTA solution (250 mmol, pH 7.0, 10 μl/measuring point).
From each reaction batch, 10 μl was applied to P30 filter strips (Wallac Company), and non-incorporated 33P-ATP was removed by subjecting the filter strips to three washing cycles for 10 minutes each in 0.5% phosphoric acid. After the filter strips were dried for 1 hour at 70° C., the filter strips were covered with scintillator strips (MeltiLex™ A, Wallac Company) and baked on for 1 hour at 90° C. The amount of incorporated 33P (substrate phosphorylation) was determined by scintillation measurement in a gamma-radiation measuring device (Wallac).

[8] = target: T3, CDK2/CycE (Homo sapiens, UniProt P24941); experiment: CDK2/CycE kinase assay; type: biochemical
T3 construct: GST; purchased ProQinase GmbH, Freiburg; host or cells: baculovirus-infected insect cells (Sf9)
Description: Recombinant CDK2- and CycE-GST-fusion proteins, purified from baculovirus-infected insect cells (Sf9), were purchased from ProQinase GmbH, Freiburg. Histone IIIS, which was used as a kinase substrate, was purchased from the Sigma Company.
The reaction was stopped by adding EDTA solution (250 mmol, pH 8.0, 14 μl/measuring point).
From each reaction batch, 10 μl was applied to P30 filter strips (Wallac Company), and non-incorporated ^33P-ATP was removed by subjecting the filter strips to three washing cycles for 10 minutes each in 0.5% phosphoric acid. After the filter strips were dried for one hour at 70° C., the filter strips were covered with scintillator strips (MeltiLex™ A, Wallac Company) and baked for one hour at 90° C. The amount of incorporated ^33P (substrate phosphorylation) was determined by scintillation measurement in a gamma-radiation measuring device (Wallac).

[9] = Table I, read-out: CDK2/CycE IC50
[10] = Table II, read-out: Inhibition IC50 CDK2/CycE
[11] = Table II, 4 days incubation, crystal violet
[12] = Table II, read-out: Proliferation IC50 MCF7

T1 sequence (P06493 whole entry): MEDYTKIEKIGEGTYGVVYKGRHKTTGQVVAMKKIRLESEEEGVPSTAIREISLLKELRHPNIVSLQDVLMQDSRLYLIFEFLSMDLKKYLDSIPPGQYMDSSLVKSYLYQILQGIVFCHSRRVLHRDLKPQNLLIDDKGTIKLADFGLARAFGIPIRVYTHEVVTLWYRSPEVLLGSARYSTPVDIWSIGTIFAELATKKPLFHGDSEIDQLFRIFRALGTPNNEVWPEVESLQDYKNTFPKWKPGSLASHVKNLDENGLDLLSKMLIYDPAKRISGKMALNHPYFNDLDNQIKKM
T1 sequence (P14635 whole entry partner): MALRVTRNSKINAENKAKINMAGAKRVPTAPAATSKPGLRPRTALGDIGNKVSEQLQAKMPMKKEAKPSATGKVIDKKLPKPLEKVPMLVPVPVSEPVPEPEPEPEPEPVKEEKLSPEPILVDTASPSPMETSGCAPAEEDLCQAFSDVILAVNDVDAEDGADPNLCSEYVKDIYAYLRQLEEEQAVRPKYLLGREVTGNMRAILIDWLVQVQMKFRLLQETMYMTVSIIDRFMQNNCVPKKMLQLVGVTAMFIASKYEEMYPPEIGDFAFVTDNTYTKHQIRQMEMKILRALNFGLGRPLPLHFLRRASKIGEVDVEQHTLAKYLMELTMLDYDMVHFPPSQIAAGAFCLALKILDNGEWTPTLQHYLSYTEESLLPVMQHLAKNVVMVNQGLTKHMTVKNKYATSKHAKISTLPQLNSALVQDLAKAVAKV

IC50 [1] | IC50 [3] | IC50 [4] | IC50 [5] | IC50 ([6]; Table I, read-out: MCF7 IC50) | IC50 [7] | IC50 [8, 9] | IC50 [8, 10] | IC50 [6, 12] | Compound | IC50 [2] | IC50 [2, 11]
20 nM | 2200 nM | 200 nM | 300 nM | 200 nM | 40 nM | – | – | – | O=S1(=O)NCCCNc2nc(ncc2Br)Nc2cccc1c2 [Example 1.1, 1^5-Bromo-4-thia-2,5,9-triaza-1(2,4)-pyrimidina-3(1,3)-benzenacyclononaphane-4,4-dioxide] | 120 nM | –
80 nM | 500 nM | 400 nM | 500 nM | 1300 nM | 140 nM | 130 nM | 130 nM | 1300 nM | NS(=O)(=O)c1ccc2cc1OCCCCNc1nc(ncc1Br)N2 [Example 8.0, 1^5-Bromo-4-oxa-2,9-diaza-1(2,4)-pyrimidina-3(1,3)-benzenacyclononaphane-3^4-sulfonamide] | – | 400 nM
28 nM | 2900 nM | 900 nM | 1700 nM | 1000 nM | < 10 nM | 23 nM | 23 nM | 1000 nM | O=S1(=O)NCCC(CO)Nc2nc(ncc2Br)Nc2cccc1c2 (racemic) [Example 1.3, rac-1^5-Bromo-4-thia-2,5,9-triaza-1(2,4)-pyrimidina-3(1,3)-benzenacyclonaphane-8-methanol-4,4-dioxide Hydrochloride] | – | 2800 nM

Source: US7312225B2, “Macrocyclic pyrimidines, their production and use as pharmaceutical agents” (Bayer Schering Pharma AG, priority 2002, dated 2007)
